Assay results: paper PMC6470533, “Structure–Activity Study, Characterization, and Mechanism of Action of an Antimicrobial Peptoid D2 and Its D- and L-Peptide Analogues” (Molecules, 2019)
Values after ≈ are worked out from the molar mass of the structure shown. Non-standard residues stand in square brackets, D forms with d. Residues, ends and D or L forms follow the SMILES beside them. N(1-naphthylmethyl)Gly = O=C(O)CNCc1cccc2ccccc12; N(4-MeBn)Gly = Cc1ccc(CNCC(=O)O)cc1; NBuGly = CCCCNCC(=O)O; Nlys = NCCCCNCC(=O)O

Assays:
[1] = system: Methicillin sensitive Staphylococcus pseudintermedius (26916); format: cell-based; settings: 18 h
[2] = system: Methicillin resistant Staphylococcus pseudintermedius, (C22963); format: cell-based; settings: 18 h
[3] = system: Staphylococcus aureus (ATCC 29213); format: cell-based; settings: ATCC 29213, 18 h
[4] = system: Enterococcus faecium, 30951; format: cell-based; settings: 30951, 18 h
Procedure: (§1) To explore the antimicrobial activity of the library of peptides and peptidomimetics, they were tested against Acinetobacter baumannii, Corynebacterium auriscanis, Escherichia coli, Enterococcus faecalis, Enterococcus faecium, Klebsiella pneumonia, Proteus mirabilis, and Pseudomonas aeruginosa. Bacteria grown on agar plates for 18 h at 37 °C were diluted to ~1 × 10^8 CFU/mL in Mueller–Hinton broth (MHB). Two-fold serial dilutions of peptides and peptidomimetics in MHB II were inoculated with bacteria to achieve a final concentration of 5 × 10^5 CFU/mL in polypropylene 96 U-well microtiter plates (Almeco, Esbjerg, Denmark), followed by incubation at 37 °C in ambient air for 18 h. The MIC values were determined as the lowest concentration showing no visible bacterial growth. Experiments were performed twice (in technical triplicates) on two different days.

[5] = system: Pseudomonas aeruginosa (ATCC 27853); format: cell-based; settings: ATCC 27853, 18 h
Procedure: as §1

E. coli, 30235 = format: cell-based, Escherichia coli; settings: 30235, 18 h
Procedure: as §1

[6] = system: P. aeruginosa isolates from canine infections; format: cell-based, Pseudomonas aeruginosa; settings: 50 isolates from canine infections
Procedure: as §1

[7] = system: DNA synthesis in MRSP E104; experiment: Macromolecule biosynthesis assay, DNA (3H-thymidine); format: cell-based, Staphylococcus pseudintermedius; settings: 0.5× MIC, 20 min incubation, MRSP E104, 3H-thymidine; means of two experiments
Procedure: (§2) The effect on DNA and cell wall synthesis was investigated after 20 min of incubation of MRSP E104 with the precursors ^3H-thymidine and ^3H-glucosamine hydrochloride, respectively, as previously reported by Ling et al.. Following macromolecule precipitation, radioactivity was counted using scintillation fluid. Incorporation of ^3H- or ^14C-labeled thymidine has been used to investigate DNA replication and transcriptional activity during the cell cycle; ^3H-glucosamine hydrochloride has been used in a mode of action study for the antimicrobial peptide plectasin, which targets the cell wall precursor lipid II [44].
(§3) Macromolecules (DNA and cell wall) biosynthesis rates were measured using strain MRSP E104 following a protocol adapted from Ling et al.. Briefly, overnight culture of E104 was diluted 1:100 in MHB and freshly grown up to OD 0.2 at 600 nm. Grown cells were pelleted down by centrifugation and then resuspended in fresh MHB medium followed by incubation for 20 min on a dry heat-bath with D2 or analogues or nisin and radiolabeled precursor: (50 µCi) ^3H-Thymidine (PerkinElmer) and (5 µCi) ^3H-glucosamine hydrochloride per mL for DNA and cell wall, respectively. A positive control without antimicrobials was maintained that corresponds to 100% synthesis rate. After 20 min of incubation, samples were precipitated with equal volume of cold 30% trichloroactic acid (TCA Sigma, Søborg, Denmark) on ice. After 15 to 30 min of incubation on ice, precipitates were filtered on a membrane filter and subsequently washed twice with cold 15% TCA and twice with cold water using a vacuum manifold. Next, filters were air dried overnight and then moved to 10 mL scintillation vials. Finally, 3 mL scintillation fluid was added to each vial and ^3H count was taken in Beckman Coulter LS6500 liquid scintillation counter for 1 min. The radioactive counts of the control samples with no antimicrobial exposure were considered to have 100% precursor incorporation and macromolecule synthesis. The percentage rates of macromolecule synthesis in the antimicrobial-exposed samples were calculated compared to control. Each experiment was performed twice with a technical replicate, and the average rates of synthesis were plotted.

[8] = system: cell wall synthesis in MRSP E104; experiment: Macromolecule biosynthesis assay, cell wall (3H-glucosamine hydrochloride); format: cell-based, Staphylococcus pseudintermedius; settings: 0.5× MIC, 20 min incubation, MRSP E104, 3H-glucosamine hydrochloride; means of two experiments
Procedure: as §2, §3

MRSP ST71 strain E104 = experiment: Growth curve analysis (BioScreen); format: cell-based, Staphylococcus pseudintermedius; settings: at the MIC, MRSP E104, OD600, 6 h, 37 °C
Procedure: First, we performed growth curve analysis using the well-characterized MRSP ST71 strain E104, which is resistant to a number of antibiotics. […] A well-characterized antimicrobial peptide, nisin, was used as control. […] Increased concentrations of nisin inhibited proportionally the growth of E104, both at sub-MIC and MIC concentrations.
The effect of D2 or analogues or nisin on the growth of MRSP strain E104 was evaluated using BioScreen (Oy Growth Curves Ab LTd, Helsinki, Finland). Freshly grown culture of E104 was diluted to OD 0.2 at 600 nm, supplemented with increased concentration of antimicrobials and distributed in a 100 well honeycomb micro-plate with volume 100 μL. The plate was incubated for 6 h at 37 °C with continuous shaking. The OD600 of each micro-culture was measured and recorded every 15 min after a 5 s pause of shaking in automatic mode. Recorded OD was plotted against time to prepare the growth curves. Experiment was performed twice and one representative result was presented.

S. aureus = experiment: MIC against canine clinical S. aureus strains (Table S2); format: cell-based, Staphylococcus aureus
Procedure: (§4) Similarly, in this study, to assess the degree of selectivity for S. pseudintermedius, D2 and D2D were tested against a collection of S. aureus and MSSP strains (Table S2).
as §1

S. pseudintermedius = experiment: MIC against canine clinical S. pseudintermedius strains (Table S2); format: cell-based, Staphylococcus pseudintermedius
Procedure: as §4, §1

red blood cell (RBC) = settings: 0.5% RBC suspension in PBS, 1 h, 37 °C, read at 414 nm, normalized to mellitin and PBS, triplicates
Procedure: Briefly, 75 µL of peptide in PBS was mixed with 75 µL of a 0.5% red blood cell (RBC) suspension in PBS, and incubated for 1 h at 37 °C. The hemoglobin release was then measured at 414 nm and normalized, using mellitin as positive control and PBS as negative control. Experiments were done in triplicates.

SMILES: CCCCN(CC(N)=O)C(=O)CN(CCCCN)C(=O)CN(Cc1cccc2ccccc12)C(=O)CN(CCCCN)C(=O)CN(Cc1ccc(C)cc1)C(=O)CN(Cc1cccc2ccccc12)C(=O)CN(CCCCN)C(=O)CNCCCCN [D2] (H-[Nlys][Nlys][N(1-naphthylmethyl)Gly][N(4-MeBn)Gly][Nlys][N(1-naphthylmethyl)Gly][Nlys][NBuGly]-NH2)
- MIC MSSP [1]: 2 to 4 µg/mL
- MIC MRSP [2]: 4 µg/mL (≈ 3.34 µM)
- MIC SA [3]: 8 µg/mL (≈ 6.67 µM)
- MIC Enterococcus faecium [4]: 16 µg/mL (≈ 13.3 µM)
- MIC PA [5]: 16 µg/mL (≈ 13.3 µM)
- MIC E. coli (E. coli, 30235): 64 µg/mL (≈ 53.4 µM)
- MIC range, panel of 50 P. aeruginosa isolates [6]: 3.12 to 12.5 µM
- inhibition of DNA biosynthesis rate [7]: < 5%
- effect on (inhibition of) cell wall synthesis [8]: 28%
- growth curve, change of cell optical density over time (MRSP ST71 strain E104): cell lysis
- MIC S. aureus 25054 (S. aureus; 25054, 8 G6, dog, wound, 2009): 4 µg/mL (≈ 3.34 µM)
- MIC S. aureus 27266 (S. aureus; 27266, 16 G9, dog, skin, 2010): 8 µg/mL (≈ 6.67 µM)
- MIC S. aureus 28264 (S. aureus; 28264, 20 B1, dog, wound, 2011): 4 µg/mL (≈ 3.34 µM)
- MIC S. aureus 30935 (S. aureus; 30935, 24 B9, dog, joint, 2013): 4 µg/mL (≈ 3.34 µM)
- MIC S. aureus 36968 (S. aureus; 36968, 61 A9, dog, wound, 2016): 4 µg/mL (≈ 3.34 µM)
- MIC S. aureus 37595 (S. aureus; 37595, 65 D2, dog, joint, 2016): 4 µg/mL (≈ 3.34 µM)
- MIC S. aureus 37708-2 (S. aureus; 37708-2, 66 C6, dog, skin, 2016): 8 µg/mL (≈ 6.67 µM)
- MIC S. aureus 38200 (S. aureus; 38200, 68 E9, dog, skin, 2016): 4 µg/mL (≈ 3.34 µM)
- MIC S. aureus 38565-1 (S. aureus; 38565-1, 70 A5, dog, skin, 2017): 4 µg/mL (≈ 3.34 µM)
- MIC S. aureus 38841 (S. aureus; 38841, 70 G5, dog, urine, 2017): 8 µg/mL (≈ 6.67 µM)
- MIC S. pseudintermedius 22963 (S. pseudintermedius; 22963, 3 B9, dog, ?, 2007): 1 to 2 µg/mL
- MIC S. pseudintermedius 26071 (S. pseudintermedius; 26071, 11 E5, dog, skin, 2009): 1 µg/mL (≈ 0.834 µM)
- MIC S. pseudintermedius 26092-2 (S. pseudintermedius; 26092-2, 11 E4, dog, skin, 2009): 1 µg/mL (≈ 0.834 µM)
- MIC S. pseudintermedius 26959 (S. pseudintermedius; 26959, 15 F8, dog, wound, 2010): 2 µg/mL (≈ 1.67 µM)
- MIC S. pseudintermedius 27364 (S. pseudintermedius; 27364, 17 A7, dog, wound, 2011): 1 µg/mL (≈ 0.834 µM)
- MIC S. pseudintermedius 27382 (S. pseudintermedius; 27382, 17 B8, dog, ear, 2011): 1 µg/mL (≈ 0.834 µM)
- MIC S. pseudintermedius 31524 (S. pseudintermedius; 31524, 54 C3, dog, ear, 2013): 1 µg/mL (≈ 0.834 µM)
- MIC S. pseudintermedius 33228 (S. pseudintermedius; 33228, 55 E2, dog, skin, 2014): 1 µg/mL (≈ 0.834 µM)
- MIC S. pseudintermedius 35890 (S. pseudintermedius; 35890, 59 B8, dog, ear, 2015): 1 µg/mL (≈ 0.834 µM)
- MIC S. pseudintermedius 37526-1 (S. pseudintermedius; 37526-1, 65 B4, dog, skin, 2016): 1 µg/mL (≈ 0.834 µM)
- MIC S. pseudintermedius 37535-1 (S. pseudintermedius; 37535-1, 65 B6, dog, skin, 2016): 1 µg/mL (≈ 0.834 µM)
- MIC S. pseudintermedius 38637 (S. pseudintermedius; 38637, 70 C3, dog, wound 2017): 1 µg/mL (≈ 0.834 µM)
- MIC S. pseudintermedius 38820 (S. pseudintermedius; 38820, 70 F9, dog, urine 2017): 1 µg/mL (≈ 0.834 µM)
- HA, percentage of hemolysis at 150 µM (red blood cell (RBC)): 24%
